Assay results from the CombiSolv-Exp solvation set (Vermeire and Green 2021).

Test: solvent given as SMILES

CCCCCC=O
Settings	solvation free energy, 298 K [kcal/mol]
in CCCCCCCC	-4.76
in CCCCCCCCCCCCCCCC	-4.52
in CCCCCCCCO	-5.95
in NC=O	-4.02
in O	-2.74
in [2H]O[2H]	-2.75

Nc1ccccc1Cl
Settings	solvation free energy, 298 K [kcal/mol]
in O	-4.91

C[N+](=O)[O-]
Settings	solvation free energy, 298 K [kcal/mol]
in Brc1ccccc1	-4.19
in C1CCCCC1	-2.81
in C1CCOC1	-5.04
in C1COCCO1	-5.08
in CC1COC(=O)O1	-5.38
in CC#N	-5.63
in CC(=O)N(C)C	-5.52
in CC(=O)O	-4.86
in CC(=O)c1ccccc1	-4.89
in CC(C)(C)O	-3.79
in CC(C)=O	-5.32
in CC(C)CC(C)(C)C	-2.74
in CC(C)CCCC(C)CCCC(C)CCCCC(C)CCCC(C)CCCC(C)C	-2.56
in CC(C)CCO	-3.74
in CC(C)O	-3.92
in CC(C)OC(C)C	-3.87
in CC(Cl)Cl	-4.84
in CCBr	-4.49
in CCC(C)=O	-5.11
in CCCC#N	-5.07
in CCCCC	-2.7
in CCCCCC	-2.8
in CCCCCCC	-2.62
in CCCCCCCC	-2.62
in CCCCCCCCCC	-2.69
in CCCCCCCCCCCCCCCC	-2.52
in CCCCCCCCO	-3.49
in CCCCCl	-4.07
in CCCCO	-3.88
in CCCCOCCCC	-3.57
in CCCO	-3.94
in CCN(CC)CC	-3.55
in CCO	-4.26
in CCOC(C)=O	-4.96
in CCOCC	-4.21
in CCOCCOCCOCC	-4.91
in CCOc1ccccc1	-4.39
in CN1CCCC1=O	-5.53
in CN(C)C=O	-5.58
in CN(C)P(=O)(N(C)C)N(C)C	-5.68
in CNC=O	-5.14
in CO	-4.66
in COC(C)=O	-5.13
in COCCO	-5
in COc1ccccc1	-4.65
in CS(C)=O	-5.63
in Cc1ccc(C)cc1	-4.13
in Cc1cccc(C)n1	-4.67
in Cc1cccc(O)c1	-4.68
in Cc1ccccc1	-4.27
in Cc1ccccn1	-4.88
in ClC(Cl)(Cl)Cl	-3.49
in ClC(Cl)Cl	-4.64
in ClCCCl	-4.9
in ClCCl	-4.98
in Clc1ccccc1	-4.24
in FC(F)(F)C(F)(F)C(F)(F)C(F)(F)C(F)(F)C(F)(F)F	-2.11
in Fc1c(F)c(F)c(F)c(F)c1F	-4.22
in Fc1ccccc1	-4.53
in ICI	-3.76
in Ic1ccccc1	-4.04
in NC=O	-4.73
in Nc1ccccc1	-5.08
in O	-4.03
in O=C1CCCCC1	-5.07
in O=C1CCCO1	-5.44
in O=CN1CCOCC1	-5.28
in OCCO	-4.07
in OCCOCCOCCO	-4.01
in OCc1ccccc1	-4.5
in S=C=S	-3.25
in [2H]O[2H]	-4.01
in c1ccc2ncccc2c1	-4.72
in c1ccc(COCc2ccccc2)cc1	-4.41
in c1ccccc1	-4.5
in c1ccncc1	-5.08

CC1CCCC(C)(C)C1 (configuration not stated)
Settings	solvation free energy, 298 K [kcal/mol]
in O	2.23

Nc1ncnc2nc[nH]c12
Settings	solvation free energy, 298 K [kcal/mol]
in C=CCCCCCCC=C	-10.2
in C=CCCCCCCCCCCCCCC	-9.84
in O	-17.4

Clc1ccc(-c2ccc(Cl)c(Cl)c2)c(Cl)c1
Settings	solvation free energy, 298 K [kcal/mol]
in O	-3.15

c1ccc(-c2ccccc2)cc1
Settings	solvation free energy, 298 K [kcal/mol]
in C1COCCO1	-9.29
in CC(C)(C)O	-8.06
in CC(C)CC(C)(C)C	-8.32
in CC(C)CC(C)O	-8.13
in CC(C)CCO	-8.16
in CC(C)CO	-8.03
in CC(C)O	-8.09
in CC(C)OCCO	-8.73
in CCC(C)(C)O	-8.3
in CCC(C)O	-8.19
in CCCC(C)CO	-8.24
in CCCC(C)O	-8.25
in CCCCC(CC)CO	-8.27
in CCCCCC	-8.53
in CCCCCCC	-8.54
in CCCCCCCC	-8.53
in CCCCCCCCC=CCCCCCCCC(=O)OCC(COC(=O)CCCCCCCC=CCCCCCCCC)OC(=O)CCCCCCCC=CCCCCCCCC	-8.8
in CCCCCCCCCC	-8.49
in CCCCCCCCO	-8.39
in CCCCCCCO	-8.36
in CCCCCCO	-8.34
in CCCCCO	-8.34
in CCCCOCCCC	-8.85
in CCCCOCCO	-8.65
in CCCO	-8.25
in CCCOCCO	-8.76
in CCO	-8.23
in CCOCC	-8.59
in CCOCCO	-8.74
in CN(C)C=O	-9.33
in CO	-7.88
in COC(C)(C)C	-9.04
in COC(C)CCO	-8.68
in ClC(Cl)(Cl)Cl	-9.22
in ClCCCl	-9.34
in ClCCl	-9.4
in Clc1ccccc1	-9.26
in O	-2.66

C=CC=CC
Settings	solvation free energy, 298 K [kcal/mol]
in N#Cc1ccccc1	-3.26

CI
Settings	solvation free energy, 298 K [kcal/mol]
in Brc1cccc2ccccc12	-3.3
in CC(=O)N(C)C	-3.63
in CC(=O)OCc1ccccc1	-3.34
in CC(C)=O	-3.56
in CC(C)CC(C)(C)C	-2.94
in CCC(C)=O	-3.48
in CCCCCCC	-3.03
in CCCCCCCC	-2.99
in CCCCCCCCO	-2.95
in CCCCCl	-3.44
in CCCCO	-3.04
in CCO	-2.99
in CCOC(C)=O	-3.46
in CN1CCCC1=O	-3.77
in CN(C)C=O	-3.49
in CO	-3.21
in Cc1ccc(C)cc1	-3.47
in ClC(Cl)(Cl)Cl	-3.49
in ClC(Cl)Cl	-3.78
in ClCCCl	-3.62
in ClCCl	-3.83
in N#Cc1ccccc1	-3.41
in O	-0.89
in O=C1CCCCC1	-3.58
in c1ccc2ncccc2c1	-3.4

CC(C)(C)OC(=O)c1ccccc1C(=O)OC(C)(C)C
Settings	solvation free energy, 298 K [kcal/mol]
in O	-7.09

Cn1cccc1
Settings	solvation free energy, 298 K [kcal/mol]
in O	-2.89

OCC(O)C(O)C(O)CO (configuration not stated)
Settings	solvation free energy, 298 K [kcal/mol]
in CC(C)O	-13.4
in CCCCO	-13.3
in CCO	-13.8
in CN(C)C=O	-15.4
in O	-16.6

CC1=CCC(=C(C)C)CCC(C)=CCC1
Settings	solvation free energy, 298 K [kcal/mol]
in O	-0.37

Oc1cccc2cccnc12
Settings	solvation free energy, 298 K [kcal/mol]
in O	-6.06

C=C(C)CCC
Settings	solvation free energy, 298 K [kcal/mol]
in O	1.46

CC(C)c1ccccc1
Settings	solvation free energy, 298 K [kcal/mol]
in C1CCOC1	-6.5
in CC#N	-5.53
in CC(C)=O	-5.89
in CC(C)O	-5.21
in CCCCCCC	-5.72
in CCCCCCCCO	-5.43
in CO	-5.18
in NC=O	-3.38
in O	-0.34
in O=CN1CCOCC1	-5.28
in OCCO	-3.54
in OCCOCCO	-4.43
in OCCOCCOCCO	-4.56

c1ccc(P(c2ccccc2)c2ccccc2)cc1
Settings	solvation free energy, 298 K [kcal/mol]
in CC(C)O	-15.4
in CCO	-15.7
in CO	-15.4

CCO
Settings	solvation free energy, 298 K [kcal/mol]
in Brc1ccccc1	-3.13
in C1CCCCC1	-2.32
in C1CCOC1	-4.51
in C1COCCO1	-4.36
in C=CCCCCCCC	-2.34
in CC1COC(=O)O1	-4.2
in CC#N	-4.38
in CC(=O)N(C)C	-5.24
in CC(=O)O	-5.22
in CC(=O)c1ccccc1	-4.04
in CC(C)(C)O	-5.05
in CC(C)=O	-4.54
in CC(C)CC(C)(C)C	-2.36
in CC(C)CCCC(C)CCCC(C)CCCCC(C)CCCC(C)CCCC(C)C	-2.01
in CC(C)CCO	-4.8
in CC(C)CO	-4.79
in CC(C)O	-4.94
in CC(C)OC(C)C	-3.77
in CC(Cl)Cl	-3.56
in CCC(C)=O	-4.36
in CCCC#N	-4.1
in CCCCC(CC)COC(=O)CCCCC(=O)OCC(CC)CCCC	-3.37
in CCCCCCC	-2.2
in CCCCCCCC	-2.14
in CCCCCCCCC=CCCCCCCCC(=O)OCC(COC(=O)CCCCCCCC=CCCCCCCCC)OC(=O)CCCCCCCC=CCCCCCCCC	-3.22
in CCCCCCCCCC	-2.25
in CCCCCCCCCCCCCCCC	-1.97
in CCCCCCCCCCO	-4.1
in CCCCCCCCCOC(=O)c1ccccc1C(=O)OCCCCCCCCC	-3.26
in CCCCCCCCO	-4.43
in CCCCCO	-4.65
in CCCCCl	-3.07
in CCCCN(C=O)CCCC	-4.53
in CCCCO	-4.9
in CCCCOCCCC	-3.32
in CCCO	-4.91
in CCCOCCC	-3.45
in CCN(CC)C(C)=O	-5.06
in CCN(CC)CC	-4.02
in CCNC(C)=O	-4.95
in CCNC=O	-4.9
in CCOC(=O)c1ccccc1C(=O)OCC	-3.54
in CCOC(C)=O	-4.13
in CCOCC	-4.42
in CCOCCO	-4.56
in CCOCCOCCOCC	-4.21
in CCOP(=O)(OCC)OCC	-4.76
in CCOc1ccccc1	-3.36
in CN1CCCC1=O	-5.09
in CN1CCCCC1=O	-5.13
in CN1CCN(C)C1=O	-4.92
in CN(C)C=O	-5.1
in CN(C)P(=O)(N(C)C)N(C)C	-6.13
in CNC(C)=O	-4.98
in CNC=O	-4.96
in CO	-5.28
in COC(C)(C)C	-3.94
in COC(C)=O	-4.11
in COCCO	-4.79
in COP(=O)(OC)OC	-4.98
in COc1ccccc1	-3.52
in CS(C)=O	-5.24
in Cc1ccc(C)cc1	-3.12
in Cc1cccc(C)c1	-3
in Cc1cccc(C)n1	-4.87
in Cc1cccc(O)c1	-5.53
in Cc1ccccc1	-3.22
in Cc1ccccn1	-4.97
in ClC(Cl)(Cl)Cl	-2.97
in ClC(Cl)Cl	-3.96
in ClCCl	-3.75
in Clc1ccccc1	-3.18
in FC(F)(F)C(F)(F)C(F)(F)C(F)(F)C(F)(F)C(F)(F)F	-1.55
in Fc1c(F)c(F)c(F)c(F)c1F	-2.79
in Fc1ccccc1	-3.32
in ICI	-2.83
in Ic1ccccc1	-3.04
in NC=O	-4.84
in Nc1ccccc1	-4.38
in O	-5.01
in O=C1CCCCC1	-4.34
in O=C1CCCO1	-4.44
in O=CN1CCOCC1	-4.53
in OCC(O)CO	-4.32
in OCCO	-4.71
in OCCOCCO	-4.56
in OCCOCCOCCO	-4.17
in OCc1ccccc1	-4.79
in S=C=S	-2.71
in [2H]O[2H]	-5.08
in c1ccc2ncccc2c1	-4.53
in c1ccc(COCc2ccccc2)cc1	-3.38
in c1ccccc1	-3.28
in c1ccncc1	-5.05
